The source of these data is ChEMBL document CHEMBL4651402, “Screening of ~5500 FDA-approved drugs and clinical candidates for anti-SARS-CoV-2 activity” (2021).

SMILES strings stand for the structures. pIC50: −log10 of the molar value.

The test system of the experiment is SARS-CoV-2. Description: microbe, parasite or virus in culture. The note with it: Severe acute respiratory syndrome coronavirus 2, Vero C1008, 48 h; for IC50: read-out: pIC50 (converted).

For `CC1(C)C(C=C(Cl)Cl)C1C(=O)OC(C#N)c1cccc(Oc2ccccc2)c1` (stereo not drawn) [ALPHA-CYPERMETHRIN], the negative-log IC50 (pIC50) was less than 4.70 and the IC50 was greater than 20 µM.
In the same order, the values of `CC(=O)NC[C@H]1CN(c2ccc(-c3ccc(CNCc4cnn[nH]4)cc3)c(F)c2)C(=O)O1` [RADEZOLID] are less than 4.70 and greater than 20 µM.
Take `COc1ccc(C(=O)c2ccccc2O)c(O)c1` [DIOXYBENZONE]: the pIC50 was less than 4.70 and the IC50 is greater than 20 µM.
In the same order, the values of `Cc1nnc(C(CCN2CC3CCC2CC3)(c2ccccc2)c2ccccc2)o1` [NUFENOXOLE] are less than 4.70 and greater than 20 µM.
In the same order, the values of `NC(=O)c1[nH]nc([C@@H]2O[C@H](CO)[C@@H](O)[C@H]2O)c1O` [PYRAZOFURIN] are less than 4.70 and greater than 20 µM.
The corresponding values for `CC(C)CN(C[C@@H](O)[C@H](Cc1ccccc1)NC(=O)[C@H](CC(N)=O)NC(=O)c1ccc2ccccc2n1)C(=O)NC(C)(C)C` are less than 4.70 and greater than 20 µM.
With `CC(C)=CCC/C(C)=C/CC/C(C)=C/CN1CCN(Cc2ccc3c(c2)OCO3)CC1` [PIFARNINE], the negative-log IC50 (pIC50) was less than 4.70 and the IC50 is greater than 20 µM.
The corresponding values for `CN1C(=O)CN2CCc3ccccc3C2c2cc(Cl)ccc21` (stereo not given) [CLAZOLAM] are less than 4.70 and greater than 20 µM.
With `c1ccc2c(CCC3CCNCC3)c[nH]c2c1` [INDALPINE], the negative-log IC50 (pIC50) is less than 4.70 and the IC50 was greater than 20 µM.
`CC(=O)N1CCN(c2ccc(OC[C@@H]3CO[C@](Cn4ccnc4)(c4ccc(Cl)cc4Cl)O3)cc2)CC1`: the negative logarithm of the IC50 (pIC50) is less than 4.70 and the IC50 was greater than 20 µM.
In the same order, the values of `COc1ccccc1N1CCN(CCCC(O)c2ccc(F)cc2)CC1` (stereo not given) [ANISOPIROL] are less than 4.70 and greater than 20 µM.
For `Cc1nnc(NS(=O)(=O)c2ccc(N)cc2)s1` [SULFAMETHIZOLE], the pIC50 is less than 4.70 and the IC50 was greater than 20 µM.
In the same order, the values of `Clc1ccc(C(Cn2ccnc2)OCc2c(Cl)cccc2Cl)cc1` (stereo not given) [ORCONAZOLE] are less than 4.70 and greater than 20 µM.
Take `Cc1ccc2c(c1)CC(=O)c1cc(C(C)C(=O)O)ccc1O2` (stereo not given) [BERMOPROFEN]: the pIC50 is less than 4.70 and the IC50 was greater than 20 µM.
The corresponding values for `Cc1nc2ccc(-n3ncc(C(=O)c4cc5ccccc5[nH]4)c3N)cc2[nH]1` [FGFR INHIBITOR DEBIO 1347] are less than 4.70 and greater than 20 µM.
As for `Cc1ccc(C[N+](C)(C)C)o1`, the pIC50 is less than 4.70 and the IC50 is greater than 20 µM.
In the same order, the values of `NC[C@H]1O[C@H](O[C@H]2[C@H](O)[C@@H](O)[C@H](N)C[C@@H]2N)[C@H](N)[C@@H](O)[C@@H]1O` [NEAMINE] are less than 4.70 and greater than 20 µM.
In the same order, the values of `CC[C@H]1OC(=O)[C@H](C)[C@@H](O[C@H]2C[C@@](C)(OC)[C@@H](O)[C@H](C)O2)[C@H](C)[C@@H](O[C@@H]2O[C@H](C)C[C@H](N(C)C)[C@H]2O)[C@](C)(O)C[C@@H](C)C(=O)[C@H](C)[C@H]2OC(=O)O[C@@]21C` are less than 4.70 and greater than 20 µM.
The corresponding values for `O=C(O)C[C@H](NC(=O)[C@@H]1CCCN(C(=O)CCC2CCNCC2)C1)c1cccnc1` [ELAROFIBAN] are less than 4.70 and greater than 20 µM.
For `O=C1NC(=O)C(Cc2ccc3cc(OCc4ccccc4F)ccc3c2)S1` (stereo not given) [NETOGLITAZONE], the negative logarithm of the IC50 (pIC50) is less than 4.70 and the IC50 is greater than 20 µM.
With `CC(C)(C)C(=O)Oc1ccc(S(=O)(=O)Nc2ccccc2C(=O)NCC(=O)O)cc1`, the pIC50 is less than 4.70 and the IC50 was greater than 20 µM.
In the same order, the values of `O=C(O)Cc1cn(-c2ccccc2)nc1-c1ccc(Cl)cc1` [LONAZOLAC] are less than 4.70 and greater than 20 µM.
In the same order, the values of `Clc1ccc(C(Cn2ccnc2)OCc2ccc(Sc3ccccc3)cc2)c(Cl)c1` (stereo not given) [FENTICONAZOLE] are less than 4.70 and greater than 20 µM.
The corresponding values for `CC(C)Nc1ncccn1` [ISAXONINE] are less than 4.70 and greater than 20 µM.
For the compound `COC(=O)Nc1nc2cc(C(=O)c3cccs3)ccc2[nH]1` [NOCODAZOLE], the pIC50 was less than 4.70 and the IC50 was greater than 20 µM.
Regarding `Cn1cnc2c(F)c(Nc3ccc(Br)cc3Cl)c(C(=O)NOCCO)cc21` [SELUMETINIB], the negative-log IC50 (pIC50) is less than 4.70 and the IC50 is greater than 20 µM.
The corresponding values for `N=C(N)NCCN1CCCCCCC1` [GUANETHIDINE] are less than 4.70 and greater than 20 µM.
As to `O=C(O)[C@H](O)[C@@H](O)[C@H](O[C@@H]1O[C@H](CO)[C@H](O)[C@H](O)[C@H]1O)[C@H](O)CO`, the negative logarithm of the IC50 (pIC50) is less than 4.70 and the IC50 was greater than 20 µM.
As for `Cc1ncc(C[n+]2csc(CCO)c2C)c(N)n1` [THIAMINE ION], the negative-log IC50 (pIC50) is less than 4.70 and the IC50 was greater than 20 µM.
The corresponding values for `CCCC/N=C(/c1cc(Cl)ccc1O)c1ccccc1Cl` [FENGABINE] are less than 4.70 and greater than 20 µM.
With `Cc1nc(N)nc(N)c1-c1ccc(Cl)c(Cl)c1` [METOPRINE], the pIC50 is less than 4.70 and the IC50 is greater than 20 µM.
In the case of `C=CC1=C(C(=O)O)N2C(=O)[C@@H](NC(=O)/C(=N\O)c3csc(N)n3)[C@H]2SC1`, the pIC50 was less than 4.70 and the IC50 was greater than 20 µM.
In the same order, the values of `COc1cc2c(N)nc(N3CCN(C(=O)OCC(C)(C)O)CC3)nc2c(OC)c1OC` [TRIMAZOSIN] are less than 4.70 and greater than 20 µM.
In the same order, the values of `CN1CCN(C(=O)OC2c3nccnc3C(=O)N2c2ccc(Cl)cn2)CC1` (stereo not given) [ZOPICLONE] are less than 4.70 and greater than 20 µM.
Consider `Cc1cc(OCCCS(C)(=O)=O)cc(C)c1-c1cccc(COc2ccc3c(c2)OC[C@@H]3CC(=O)O)c1`, for which the pIC50 was less than 4.70 and the IC50 was greater than 20 µM.
The corresponding values for `Nc1nc(=O)c2nc(CNc3ccc(C(=O)N[C@@H](CCC(=O)O)C(=O)O)cc3)cnc2[nH]1` [FOLIC ACID] are less than 4.70 and greater than 20 µM.
In the same order, the values of `OC(c1ccccc1)(c1ccccc1)C1CCNCC1` [AZACYCLONOL] are less than 4.70 and greater than 20 µM.
Turning to `CN(C)CCc1c[nH]c2ccc(CS(=O)(=O)N3CCCC3)cc12` [ALMOTRIPTAN], the negative logarithm of the IC50 (pIC50) was less than 4.70 and the IC50 is greater than 20 µM.
As to `CCC(CC)[C@@H](c1ccc(Nc2nc3ccccc3s2)cc1)n1cncn1`, the negative logarithm of the IC50 (pIC50) is less than 4.70 and the IC50 is greater than 20 µM.
As to `CC(=O)N1CCCC1C(=O)O` (stereo not given) [N-ACETYLPROLINE], the pIC50 was less than 4.70 and the IC50 was greater than 20 µM.
As for `CN1[C@@H]2CC[C@H]1CC(O)C2` (stereo not given in full), the pIC50 was less than 4.70 and the IC50 was greater than 20 µM.
As for `CN(C)CCc1c[nH]c2ccc(O)cc12` [BUFOTENINE], the negative logarithm of the IC50 (pIC50) is less than 4.70 and the IC50 is greater than 20 µM.
In the same order, the values of `COc1cccc(C2(CCCN(C)C)C(=O)NC(=O)CC2(C)C)c1` (stereo not given) are less than 4.70 and greater than 20 µM.
`O[C@@H](COc1cccc2ncccc12)CN1CCN([C@@H]2c3ccccc3[C@@H]3[C@H](c4ccccc42)C3(F)F)CC1` [ZOSUQUIDAR]: the pIC50 is less than 4.70 and the IC50 was greater than 20 µM.
The corresponding values for `COc1ccc(-c2nc3cc(C4=NNC(=O)C[C@H]4C)ccc3[nH]2)cc1` are less than 4.70 and greater than 20 µM.
Turning to `C[C@H](C(=O)O)c1ccc2cc(OCc3ccc4ccccc4n3)ccc2c1`, the negative-log IC50 (pIC50) is less than 4.70 and the IC50 was greater than 20 µM.
The corresponding values for `CC(=O)Oc1ccc(-c2ccc(F)cc2)cc1C(=O)O` [FLUFENISAL] are less than 4.70 and greater than 20 µM.
In the same order, the values of `C#C[C@]1(CO)O[C@@H](n2cnc3c(N)nc(F)nc32)C[C@@H]1O` are less than 4.70 and greater than 20 µM.
Take `O=C(O)c1cc2cc(F)ccc2[nH]1` [5-FLUOROINDOLE-2-CARBOXYLIC ACID]: the pIC50 was less than 4.70 and the IC50 was greater than 20 µM.
In the same order, the values of `CC[C@@H](Nc1c(Nc2cccc(C(=O)N(C)C)c2O)c(=O)c1=O)c1ccc(C)o1` [NAVARIXIN ANHYDROUS] are less than 4.70 and greater than 20 µM.
The corresponding values for `COC(=O)CCC(C)C1CCC2C3CC[C@@H]4C[C@H](O)CC[C@]4(C)C3C[C@H](O)[C@]12C` (stereo not given in full) are less than 4.70 and greater than 20 µM.
The corresponding values for `CC(=O)c1cc2ccccc2oc1=O` [3-ACETYLCOUMARIN] are less than 4.70 and greater than 20 µM.
For `CCCCCCCCCCCC(=O)OCC(O)CO` (stereo not given) [GLYCEROL MONOLAURATE], the negative logarithm of the IC50 (pIC50) is less than 4.70 and the IC50 was greater than 20 µM.
The corresponding values for `Cc1cc(-n2nc3ccc(Cl)cc3n2)c(O)c(C(C)(C)C)c1` [BUMETRIZOLE] are less than 4.70 and greater than 20 µM.
In the same order, the values of `C[C@H]1O[C@@H](O[C@H]2[C@@H](O)C[C@H](O[C@H]3[C@@H](O)C[C@H](O[C@H]4CC[C@@]5(C)[C@H](CC[C@@H]6[C@@H]5CC[C@]5(C)[C@@H](C7=CC(=O)OC7)CC[C@]65O)C4)O[C@@H]3C)O[C@@H]2C)C[C@H](O)[C@@H]1O` [DIGITOXIN] are less than 4.70 and greater than 20 µM.
The corresponding values for `NC1(C(=O)O)CCCC1` [CYCLOLEUCINE] are less than 4.70 and greater than 20 µM.
As to `CC(C)CCCC(C)C1CCC2C3CC[C@H]4CCCC[C@]4(C)C3CCC12C` (stereo not given in full), the pIC50 is less than 4.70 and the IC50 was greater than 20 µM.
Take `COc1cccc(N(C)C(=S)Oc2ccc3c(c2)CCCC3)n1` [LIRANAFTATE]: the negative logarithm of the IC50 (pIC50) was less than 4.70 and the IC50 was greater than 20 µM.
In the same order, the values of `CC(C)(C)NCC(O)c1cc(O)cc(O)c1` (stereo not given) [TERBUTALINE] are less than 4.70 and greater than 20 µM.
The corresponding values for `S=C(NC1CCCCC1)N1CCC(c2cnc[nH]2)CC1` [THIOPERAMIDE] are less than 4.70 and greater than 20 µM.
